Assays:
[1] = target: T1, Estrogen receptor (Homo sapiens) (UniProt P03372); assay: Receptor binding affinity (RBA) to human recombinant estrogen receptor alpha (REH) after 24 hours at 0 degree Centigrade
T1 sequence (whole entry): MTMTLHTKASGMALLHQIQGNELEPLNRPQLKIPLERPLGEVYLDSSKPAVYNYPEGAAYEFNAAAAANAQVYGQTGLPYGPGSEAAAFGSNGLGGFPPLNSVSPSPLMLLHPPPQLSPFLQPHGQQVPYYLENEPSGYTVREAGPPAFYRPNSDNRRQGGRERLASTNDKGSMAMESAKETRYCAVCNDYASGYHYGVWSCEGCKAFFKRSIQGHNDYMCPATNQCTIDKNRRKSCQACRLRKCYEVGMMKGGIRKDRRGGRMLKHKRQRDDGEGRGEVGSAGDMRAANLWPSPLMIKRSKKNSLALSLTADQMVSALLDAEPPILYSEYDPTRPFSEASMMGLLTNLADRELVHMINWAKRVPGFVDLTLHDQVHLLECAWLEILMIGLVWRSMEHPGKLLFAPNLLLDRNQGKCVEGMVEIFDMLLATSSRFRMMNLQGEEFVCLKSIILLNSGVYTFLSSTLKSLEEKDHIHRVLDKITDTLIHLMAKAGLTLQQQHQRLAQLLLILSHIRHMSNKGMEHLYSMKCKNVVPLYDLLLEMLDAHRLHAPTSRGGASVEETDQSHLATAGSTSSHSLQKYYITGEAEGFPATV

[2] = target: T1, Estrogen receptor (Homo sapiens); assay: Binding affinity for human estrogen receptor alpha after 24 hr r at 0C
[3] = target: T1, Estrogen receptor (Homo sapiens); assay: Binding affinity for human estrogen receptor alpha after 3 hr at 0C

| Compound | Activity [1] | Activity [2] | Activity [3] |
| --- | --- | --- | --- |
| COc1cc(CO)cc(OC)c1-c1ccc(O)cc1 | 0.24% |  |  |
| OCc1cc(F)c(-c2ccc(O)cc2)c(F)c1 | 0.93% |  |  |
| OCc1cc(Br)c(-c2ccc(O)cc2)c(Br)c1 |  | 106% | 425% |
| Cc1cc(CO)cc(C)c1-c1ccc(O)cc1 | 0.8% |  |  |
| CSc1cc(CO)cc(Br)c1-c1ccc(O)cc1 | 4.5% |  |  |
| Cc1cc(O)cc(C)c1-c1ccc(CO)cc1 | 0.06% |  |  |
| CN(C)C#Cc1cc(CO)cc(Br)c1-c1ccc(O)cc1 | 0.2% |  |  |
| OCc1ccc(-c2cc(Br)c(O)c(Br)c2)cc1 | 0% |  |  |
| OCc1ccc(-c2c(Cl)c(Cl)c(O)c(Cl)c2Cl)cc1 | 0% |  |  |
| OCc1cc(Cl)c(-c2ccc(O)cc2Cl)c(Cl)c1 | 21% |  |  |
| OCc1cc(Br)c(-c2ccc(O)cc2)c(I)c1 | 41% |  |  |
| OCc1ccc(-c2ccc(O)cc2Cl)cc1 | 0.03% |  |  |
| OCc1cc(Cl)c(-c2ccc(O)cc2)c(-c2ccc(O)cc2)c1 | 1% |  |  |
| OCc1cc(Cl)c(-c2ccc(O)c(Cc3ccccc3)c2)c(Cl)c1 | 0.07% |  |  |
| OCc1cc(Cl)c(-c2ccc(O)cc2)c(Cl)c1 | 34% |  | 104% |
| OCc1ccc(-c2c(Cl)cc(O)cc2Cl)cc1 | 0.4% |  |  |
| OCc1ccc(-c2ccc(O)cc2)c(-c2ccc(O)cc2)c1 | 1% |  |  |
| O=[N+]([O-])c1cc(CO)cc([N+](=O)[O-])c1-c1ccc(O)cc1 | 5% |  | 24% |

Further lines, results first:

| Activity [1] | Activity [2] | Activity [3] | Compound |
| --- | --- | --- | --- |
| 2.5% |  |  | COc1cc(CO)cc(Cl)c1-c1ccc(O)cc1 |
| 2% |  |  | OCc1cc(Br)c(-c2ccc(O)cc2)c(-n2cccc2)c1 |
| 5.4% |  |  | OCc1c(Cl)c(Cl)c(-c2ccc(O)cc2)c(Cl)c1Cl |
| 9.5% |  | 33% | OCc1ccc(-c2ccc(O)cc2)c(C(F)(F)F)c1 |
| 22% |  |  | CC(C)c1cc(CO)cc(Cl)c1-c1ccc(O)cc1 |
| 34% |  |  | O=[N+]([O-])c1cc(CO)cc(Br)c1-c1ccc(O)cc1 |
| 2% |  |  | OCc1ccc(-c2ccc(O)cc2)c(Cl)c1 |
| 0.03% |  |  | Nc1cc(CO)cc([N+](=O)[O-])c1-c1ccc(O)cc1 |
| 0.03% |  |  | Nc1cc(CO)cc(Br)c1-c1ccc(O)cc1 |
| 50% |  |  | OCc1cc(Cl)c(-c2ccc(O)cc2)c(C(F)(F)F)c1 |
| 0% |  |  | Cc1cc(-c2ccc(CO)cc2)cc(C)c1O |

Source: ChEMBL document CHEMBL1134802, “Biphenyls as surrogates of the steroidal backbone. Part 1: synthesis and estrogen receptor affinity of an original series of polysubstituted biphenyls” (Bioorg Med Chem Lett, 2001)
